ChEMBL document CHEMBL1201862, “PubChem BioAssay data set” (2004)
The source made the active and inactive calls.

Legend:
[1] = molecular target: Peroxisome proliferator-activated receptor gamma/Nuclear receptor corepressor 2 (Homo sapiens, UniProt P37231+Q9Y618); assay type: functional
[2] = molecular target: Peroxisome proliferator-activated receptor gamma/Nuclear receptor coactivator 3 (Homo sapiens, UniProt P37231); assay: (§1) TR-FRET dose response biochemical High Throughput Screening assay for agonists of the steroid receptor coactivator 3 (SRC-3) recruitment by the peroxisome proliferator-activated receptor gamma (PPAR gamma): non-selective agonists. [Related pubchem assays: 1301 (Confirmation screen.), 1048 (Primary screen.)]; assay type: functional
[3] = molecular target: Peroxisome proliferator-activated receptor gamma/Nuclear receptor coactivator 1 (Homo sapiens, UniProt P37231); assay: as §1, with “1 (SRC-1)” for “3 (SRC-3)”, “assays (depositor defined):AID1300, AID1808, AID504735, AID631]” for “assays: 1301 (Confirmation screen.), 1048 (Primary screen.)]”; assay type: protein assay
[4] = molecular target: Photoreceptor-specific nuclear receptor (Homo sapiens, UniProt Q9Y5X4); assay type: functional;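 note: potency for compounds that break the NR2E3 corepressor complex and count as activators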
[5] = molecular target: Peroxisome proliferator-activated receptor gamma/Nuclear receptor coactivator 2 (Homo sapiens, UniProt P37231); assay: TR-FRET dose response biochemical High Throughput Screening assay for agonists of the steroid receptor coactivator 2 (SRC-2) recruitment by the peroxisome proliferator-activated receptor gamma (PPAR gamma): non-selective agonists. [Related pubchem assays: 1297, 1032 ]; assay type: functional
Cytochrome P450 2D6 = Cytochrome P450 2D6 (Homo sapiens, UniProt P10635);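 note: CYP2D6 member of a cytochrome P450 panel assay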
Escherichia coli = assay: microbe, parasite or virus in culture
[6] = molecular target: T1, Serine/threonine-protein phosphatase (Candida dubliniensis (strain CD36 / CBS 7987 / NCPF 3949 / NRRLY-17841) (Yeast), UniProt B9W6M3); assay: calcineurin pathway inhibitors in yeast reporter, dose response, S. cerevisiae, CDRE-lacZ, luminescence, secondary (AID 2388); assay type: functional, cell-based;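 note: yeast reporter cells carrying a calcineurin-responsive lacZ construct stimulated with calcium chloride; luminescent beta-galactosidase reporter signal in whole cells rather than isolated phosphatase activity; potency for inhibition where a drop in reporter signal means calcineurin blockade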
T1 sequence (B9W6M3 whole entry): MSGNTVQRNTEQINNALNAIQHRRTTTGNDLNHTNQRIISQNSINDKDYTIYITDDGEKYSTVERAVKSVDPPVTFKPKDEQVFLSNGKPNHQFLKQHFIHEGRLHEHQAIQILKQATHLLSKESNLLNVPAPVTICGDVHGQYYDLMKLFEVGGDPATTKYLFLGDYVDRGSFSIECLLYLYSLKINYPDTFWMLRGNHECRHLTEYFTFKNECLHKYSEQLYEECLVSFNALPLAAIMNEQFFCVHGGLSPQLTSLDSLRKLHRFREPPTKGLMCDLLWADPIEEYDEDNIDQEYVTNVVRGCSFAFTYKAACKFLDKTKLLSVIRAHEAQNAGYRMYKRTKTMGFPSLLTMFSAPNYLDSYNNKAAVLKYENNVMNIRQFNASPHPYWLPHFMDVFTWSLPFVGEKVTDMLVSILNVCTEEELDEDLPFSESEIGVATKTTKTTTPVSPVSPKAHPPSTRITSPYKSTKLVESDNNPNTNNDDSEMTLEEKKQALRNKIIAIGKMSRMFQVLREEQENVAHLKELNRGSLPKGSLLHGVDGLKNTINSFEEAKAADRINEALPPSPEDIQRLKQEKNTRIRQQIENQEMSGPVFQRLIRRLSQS

[7] = C. albicans growth with fluconazole, confirmation, fluorescence, retest (AID 2467); assay type: functional, cell-based
INS1 = assay: beta cell apoptosis inhibitors, cytokine rescue, dose response, luminescence, retest (AID 449756); assay type: functional, cell-based; conditions: Rattus norvegicus;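 note: cell death triggered by IL-1 beta plus TNF-alpha plus IFN-gamma mixture; protective hits raise ATP signal compared with cytokine alone wells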
cells [8] = assay type: functional, cell-based
cells [9] = assay type: functional, cell-based; remark: listed apart in the source
[10] = molecular target: ATP-dependent molecular chaperone HSP82 (Candida albicans (strain WO-1) (Yeast), UniProt C4YTQ8); assay: loss of DOC-induced GRE-beta-galactosidase reporter signal, dose response, Hsp90 inhibitor project, S. cerevisiae, luminescence (AID 2400); assay type: functional, cell-based;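 note: beta-galactosidase luminescence from glucocorticoid response element reporter as proxy for Hsp90 function; inhibitor potency where signal loss means Hsp90 inhibition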
[11] = NIH-3T3 fibroblast cytotoxicity, dose response, cytotoxicity control, cell-based, fluorescence, Alamar Blue, secondary assay (AID 2327); assay type: functional;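 note: NIH-3T3 mouse fibroblasts cultured with fluconazole at 8 µg/mL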
[12] = cytotoxicity in HEK-293T cells, dose response, cytotoxicity control for TCR NF-kB inhibitor project, luminescence, T-cell screen hits (AID 489026); assay type: functional, cell-based;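 note: cells exposed to compound about 14 hours before the viability readout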
[13] = molecular target: Heat shock protein HSP 90-alpha (Homo sapiens, UniProt P07900); assay type: functional, organism-based
[14] = microbe, parasite or virus in culture; assay type: functional; conditions: Mycobacterium tuberculosis
Keap1/Nrf2 = Keap1/Nrf2 (Homo sapiens, UniProt Q14145); assay: Keap1-Nrf2 protein-protein interaction inhibitors, dose response, biochemical, fluorescence polarization, cherry-picked samples (AID 588683)
[15] = molecular target: E3 ubiquitin-protein ligase XIAP (Homo sapiens, UniProt P98170); assay: Counter Screen using XIAP-Bir3 for Chemical Antagonists of Bir1/2 domains of IAP-family anti-apoptotic proteins. [Related pubchem assays (depositor defined):AID1018, AID1449, AID1514, AID1638, AID1749, AID1750, AID488957, AID488963]
E3 ubiquitin-protein ligase XIAP, sequence (P98170 whole entry): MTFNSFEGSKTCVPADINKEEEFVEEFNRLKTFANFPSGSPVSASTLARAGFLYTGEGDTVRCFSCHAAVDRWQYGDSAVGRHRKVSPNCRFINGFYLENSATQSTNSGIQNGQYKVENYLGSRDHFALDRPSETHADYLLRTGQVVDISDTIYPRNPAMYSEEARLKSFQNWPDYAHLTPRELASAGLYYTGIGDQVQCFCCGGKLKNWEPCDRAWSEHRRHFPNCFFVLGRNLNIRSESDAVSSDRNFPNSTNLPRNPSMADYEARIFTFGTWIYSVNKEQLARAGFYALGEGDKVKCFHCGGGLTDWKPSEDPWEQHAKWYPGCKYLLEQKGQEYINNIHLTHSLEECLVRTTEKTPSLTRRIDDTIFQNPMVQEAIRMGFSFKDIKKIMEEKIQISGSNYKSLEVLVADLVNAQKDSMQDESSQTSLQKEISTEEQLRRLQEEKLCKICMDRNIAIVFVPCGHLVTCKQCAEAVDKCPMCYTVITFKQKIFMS

Cytochrome P450 2D6, sequence (P10635 whole entry): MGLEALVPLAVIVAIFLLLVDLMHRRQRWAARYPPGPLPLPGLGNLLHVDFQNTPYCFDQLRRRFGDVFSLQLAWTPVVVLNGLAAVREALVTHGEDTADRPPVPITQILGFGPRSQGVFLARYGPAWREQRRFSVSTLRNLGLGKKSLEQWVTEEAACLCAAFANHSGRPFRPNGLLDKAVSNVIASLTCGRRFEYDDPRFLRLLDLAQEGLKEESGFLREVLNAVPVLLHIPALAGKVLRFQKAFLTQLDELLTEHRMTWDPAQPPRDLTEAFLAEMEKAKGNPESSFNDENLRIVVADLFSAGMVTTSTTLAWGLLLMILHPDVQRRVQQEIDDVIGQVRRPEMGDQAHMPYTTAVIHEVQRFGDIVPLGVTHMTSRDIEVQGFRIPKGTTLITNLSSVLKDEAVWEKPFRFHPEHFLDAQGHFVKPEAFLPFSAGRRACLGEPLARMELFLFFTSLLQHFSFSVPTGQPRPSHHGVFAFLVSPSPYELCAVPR
Photoreceptor-specific nuclear receptor, sequence (Q9Y5X4 whole entry): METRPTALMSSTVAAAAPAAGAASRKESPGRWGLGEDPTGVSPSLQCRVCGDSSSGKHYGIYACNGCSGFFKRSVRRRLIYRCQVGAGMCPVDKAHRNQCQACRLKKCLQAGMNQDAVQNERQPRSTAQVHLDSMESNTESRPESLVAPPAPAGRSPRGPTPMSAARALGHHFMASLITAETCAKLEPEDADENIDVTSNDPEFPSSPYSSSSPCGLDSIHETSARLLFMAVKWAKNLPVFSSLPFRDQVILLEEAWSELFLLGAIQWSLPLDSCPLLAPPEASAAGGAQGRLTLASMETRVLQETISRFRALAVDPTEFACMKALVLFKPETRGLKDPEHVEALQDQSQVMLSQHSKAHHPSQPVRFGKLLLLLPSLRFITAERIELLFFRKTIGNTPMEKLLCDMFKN
ATP-dependent molecular chaperone HSP82, sequence (C4YTQ8 whole entry): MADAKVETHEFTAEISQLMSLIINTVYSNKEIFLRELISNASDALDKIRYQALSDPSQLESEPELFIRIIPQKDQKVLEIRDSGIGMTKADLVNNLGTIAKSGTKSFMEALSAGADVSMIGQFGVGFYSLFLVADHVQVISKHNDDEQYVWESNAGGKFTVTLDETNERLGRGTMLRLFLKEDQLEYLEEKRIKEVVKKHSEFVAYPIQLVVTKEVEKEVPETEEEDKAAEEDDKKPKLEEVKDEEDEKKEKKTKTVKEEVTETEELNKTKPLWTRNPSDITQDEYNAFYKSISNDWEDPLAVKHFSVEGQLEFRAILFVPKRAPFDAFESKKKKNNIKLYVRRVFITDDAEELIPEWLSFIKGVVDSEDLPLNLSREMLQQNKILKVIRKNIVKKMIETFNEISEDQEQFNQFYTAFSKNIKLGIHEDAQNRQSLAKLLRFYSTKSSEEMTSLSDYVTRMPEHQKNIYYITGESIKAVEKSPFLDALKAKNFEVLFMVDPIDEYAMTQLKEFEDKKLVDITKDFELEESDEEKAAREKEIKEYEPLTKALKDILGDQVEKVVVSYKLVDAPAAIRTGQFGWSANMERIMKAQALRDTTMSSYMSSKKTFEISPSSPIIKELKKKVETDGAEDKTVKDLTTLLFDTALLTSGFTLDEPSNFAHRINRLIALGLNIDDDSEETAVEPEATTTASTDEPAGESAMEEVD
Keap1/Nrf2, sequence (Q16236 whole entry): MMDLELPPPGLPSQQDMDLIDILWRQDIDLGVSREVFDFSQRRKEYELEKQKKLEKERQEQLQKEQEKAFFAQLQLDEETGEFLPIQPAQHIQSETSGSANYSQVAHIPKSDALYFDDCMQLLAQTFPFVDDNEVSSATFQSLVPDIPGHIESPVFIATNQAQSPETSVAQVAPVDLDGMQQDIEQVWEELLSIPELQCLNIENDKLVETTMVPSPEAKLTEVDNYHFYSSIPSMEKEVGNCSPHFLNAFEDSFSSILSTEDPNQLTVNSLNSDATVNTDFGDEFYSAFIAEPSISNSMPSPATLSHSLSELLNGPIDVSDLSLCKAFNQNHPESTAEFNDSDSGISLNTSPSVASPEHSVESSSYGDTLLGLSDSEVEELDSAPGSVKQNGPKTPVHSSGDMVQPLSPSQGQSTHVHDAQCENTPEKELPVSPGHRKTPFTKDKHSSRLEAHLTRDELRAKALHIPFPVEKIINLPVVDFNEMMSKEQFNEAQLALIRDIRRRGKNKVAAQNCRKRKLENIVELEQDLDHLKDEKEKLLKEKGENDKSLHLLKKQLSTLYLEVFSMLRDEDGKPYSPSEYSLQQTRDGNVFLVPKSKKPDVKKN
Keap1/Nrf2, sequence (Q14145 whole entry): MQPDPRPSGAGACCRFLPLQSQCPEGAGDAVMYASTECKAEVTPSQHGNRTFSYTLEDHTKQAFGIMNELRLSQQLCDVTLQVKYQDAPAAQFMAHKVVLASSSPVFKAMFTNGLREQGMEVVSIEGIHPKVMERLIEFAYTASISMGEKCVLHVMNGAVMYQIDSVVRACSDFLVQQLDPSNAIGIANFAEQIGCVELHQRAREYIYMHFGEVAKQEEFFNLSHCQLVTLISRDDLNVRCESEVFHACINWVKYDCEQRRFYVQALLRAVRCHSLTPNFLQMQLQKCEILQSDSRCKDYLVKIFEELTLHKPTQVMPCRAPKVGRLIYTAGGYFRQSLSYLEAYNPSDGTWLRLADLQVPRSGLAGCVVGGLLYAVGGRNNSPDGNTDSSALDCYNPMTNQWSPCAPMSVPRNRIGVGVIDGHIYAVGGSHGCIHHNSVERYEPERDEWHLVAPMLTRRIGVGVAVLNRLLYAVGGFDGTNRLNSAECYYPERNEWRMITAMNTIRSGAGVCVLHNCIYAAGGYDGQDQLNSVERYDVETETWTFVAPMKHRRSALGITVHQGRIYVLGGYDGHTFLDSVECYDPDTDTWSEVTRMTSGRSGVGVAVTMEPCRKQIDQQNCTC

## O=C(C1=C(O)C(=O)N(CCc2ccccc2)C1c1ccncc1)c1cc2ccccc2o1 (centres undefined)
[1]
  IC50: 7.02 µM (active)
[2]
  EC50: > 79.4 µM (not active)
[3]
  EC50: > 79.4 µM (inactive)
[4]
  IC50: > 39.8 µM (not active)
[5]
  EC50: 26.1 µM (not active)

## C[C@]12CC[C@H]3c4ccc(O)cc4CC[C@@H]3[C@H]1C/C(=N/O)[C@H]2O
Cytochrome P450 2D6
  AC50: inconclusive

## CN(CC(=O)NCc1cccnc1)S(=O)(=O)c1ccccc1
Escherichia coli
  AC50: 54.1 µM (active)

## COc1cccc(/C=N/Nc2ncnc3scc(-c4ccccc4)c23)c1O
[6]
  EC50: > 180 µM (inactive)
[7]
  EC50: 0.753 µM (active)
INS1
  AC50: 0.432 µM (active)
Cells [8]
  EC50: 2.21 µM (active)
Cells [9]
  EC50: > 350 µM (not active)
[10]
  EC50: 17.7 µM (active)
[11]
  EC50: > 150 µM (inactive)
[12]
  IC50: 62.5 µM (inactive)
[13]
  AC50: 24.5 µM (active)
[14]
  CC50: 1.31 µM (active)

## CN1CC=C2C(C#N)=C(N)C(C#N)(C#N)[C@H](c3cccs3)[C@H]2C1
Keap1/Nrf2
  AC50: > 52 µM (inactive)

## C=CCc1cccc2cc(C(=O)Nc3ccc(CC(=O)O)cc3)c(=O)oc12
[15]
  IC50: > 20 µM (inactive)
